tested on: M17-TAU P301L cells; assay: TAU cytotoxicity assay: LDH leakage of retinoic acid incubated M17-TAU P301L cells; assay type: cell-based, human; conditions: Homo sapiens, 168 h, reduction of LDH activity of retinoic acid incubated M17-TAU P301L cells, 7 days
Source text: A TAU expression plasmid was constructed by sub-cloning the cDNA of human TAU-P301 L (encoding for TAU with proline 301 substituted by a leucine residue) into mammalian expression vector pcDNA3.1 resulting in plasmid pcDNA3.1-TAU P301L. Plasmids pcDNA3.1 and pcDNA3.1-TAU P301L were transfected to human neuroblastoma cells ([…]; ATCC No. CRL-2267) and independent clonal lines with the plasmids stably integrated into the genome were selected. […] Expression of the TAU P301L genes in the cell lines was confirmed by Western analysis.
In degenerated or dead cells lactate dehydrogenase (LDH) is leaked out of the cells into the extracellular environment due to a loss of plasma-membrane integrity. This principle was used to determine cytotoxicity by quantifying the level of leaked LDH into the growth medium.
The detailed method for determining TAU cytotoxicity was as follows: From appropriate precultures of M17-3.1 and M17-TAU(P301L) cells were seeded at 2500 cells/cm2 in Optimem Reduced Serum without phenol red (Gibco, Cat. 31985-047) supplemented with 1% fetal calf serum, 1 mM sodium pyruvate, 1× non-essential amino acids, 500 μg/ml G418 0.5× antibiotic/antimycotic. After 3 h of incubation at 37° C./5% CO2 1 volume of Optimem Reduced Serum (same as described above; except without fetal calf serum) supplemented with 2.5 μM retinoic acid (RA) was added. The cells were further incubated for 7 days. Subsequently, LDH activity was determined using Promega Cytotox 96 Non-Radioactive cytotoxicity assay, (Cat. G1780) according the supplier's instructions.
The M17-TAU P301L cell line made it possible to assess the ability of novel compounds to counteract TAU cytotoxicity. […] These measurements were used to calculate EC50 values of table 2.
Exemplary compounds of the present invention are shown in table 2, with their chemical name and their EC50 value (expressed in nM) as determined from example 196 in the Tau-induced toxicity experiment.

Structure (SMILES) | EC50 [µM]
O=C(NCCc1c[nH]c2ccc(F)cc12)c1cc(Cc2cccc(F)c2)on1 [Example D28, N-(2-(5-fluoro-1H-indol-3-yl)ethyl)-5-(3-fluorobenzyl)isoxazole-3-carboxamide] | 0.041
O=C(NCCc1c[nH]c2ccc(Cl)cc12)c1cc(-c2ccco2)on1 [Example D11, N-(2-(5-chloro-1H-indol-3-yl)ethyl)-5-(furan-2-yl)isoxazole-3-carboxamide] | 0.017
COc1ccc(N2CCC(C(=O)NCCc3c[nH]c4ccc(Cl)cc34)C2=O)cc1F (stereo not drawn) [Example D147, N-(2-(5-chloro-1H-indol-3-yl)ethyl)-1-(3-fluoro-4-methoxyphenyl)-2-oxopyrrolidine-3-carboxamide] | 0.379
O=C(NCCc1c[nH]c2ccc(Cl)cc12)C1=N[C@H](Cc2ccccc2)CO1 [Example D81, (R)-4-benzyl-N-(2-(5-chloro-1H-indol-3-yl)ethyl)-4,5-dihydrooxazole-2-carboxamide] | 0.917
O=C(NCCc1c[nH]c2ccc(Cl)cc12)C1CCN(c2cccc(-n3cccc3)c2)C1=O (stereo not drawn) [Example D155, 1-(3-(1H-pyrrol-1-yl)phenyl)-N-(2-(5-chloro-1H-indol-3-yl)ethyl)-2-oxopyrrolidine-3-carboxamide] | 1.37
Cc1cccc(N2CCC(C(=O)NCCc3c[nH]c4ccc(Cl)cc34)C2=O)c1 (stereo not drawn) [Example D159, N-(2-(5-chloro-1H-indol-3-yl)ethyl)-2-oxo-1-m-tolylpyrrolidine-3-carboxamide] | 0.9
O=C(NCCc1c[nH]c2ccc(Cl)cc12)c1cn(C2CCCCC2)nn1 [Example D44, N-(2-(5-chloro-1H-indol-3-yl)ethyl)-1-cyclohexyl-1H-1,2,3-triazole-4-carboxamide] | 0.108
O=C(c1cc(Cc2cc(F)ccc2F)on1)N1CCC(c2c[nH]c3ccc(Cl)cc23)CC1 [Example D139, (4-(5-chloro-1H-indol-3-yl)piperidin-1-yl)(5-(2,5-difluorobenzyl)isoxazol-3-yl)methanone] | 0.186
O=C(NCCc1c[nH]c2ccc(Cl)cc12)C1CCN(c2ccc3c(c2)COC3)C1=O (stereo not drawn) [Example D146, N-(2-(5-chloro-1H-indol-3-yl)ethyl)-1-(1,3-dihydroisobenzofuran-5-yl)-2-oxopyrrolidine-3-carboxamide] | 1.17
O=C(NCCc1c[nH]c2ccc(Cl)cc12)c1cc(Cc2cccc(F)c2)on1 [Example D23, N-(2-(5-chloro-1H-indol-3-yl)ethyl)-5-(3-fluorobenzyl)isoxazole-3-carboxamide] | 0.03
O=C(NCCc1c[nH]c2ccc(Cl)cc12)C1CCN(c2ccccc2F)C1=O (stereo not drawn) [Example D79, N-(2-(5-chloro-1H-indol-3-yl)ethyl)-1-(2-fluorophenyl)-2-oxopyrrolidine-3-carboxamide] | 0.857
O=C(NCCc1c[nH]c2ccc(Cl)cc12)c1cc(CO)on1 [Example D121, N-(2-(5-chloro-1H-indol-3-yl)ethyl)-5-(hydroxymethyl)isoxazole-3-carboxamide] | 0.105
CCN(CC)Cc1cc(C(=O)NCCc2c[nH]c3ccc(Cl)cc23)no1 [Example D125, N-(2-(5-chloro-1H-indol-3-yl)ethyl)-5-((diethylamino)methyl)isoxazole-3-carboxamide] | 0.347
O=C(NCCc1c[nH]c2ncc(Cl)cc12)c1cc(C(=O)c2cc(F)ccc2F)on1 [Example D127, N-(2-(5-chloro-1H-pyrrolo[2,3-b]pyridin-3-yl)ethyl)-5-(2,5-difluorobenzoyl)isoxazole-3-carboxamide] | 0.436
O=C(NCCc1c[nH]c2ccc(Cl)cc12)c1cc(Cc2cccs2)on1 [Example D27, N-(2-(5-chloro-1H-indol-3-yl)ethyl)-5-(thiophen-2-ylmethyl)isoxazole-3-carboxamide] | 0.038
O=C(NCCc1c[nH]c2ccc(Cl)cc12)C1CCN(c2cccc(F)c2)C1=O (stereo not drawn) [Example D65, N-(2-(5-chloro-1H-indol-3-yl)ethyl)-1-(3-fluorophenyl)-2-oxopyrrolidine-3-carboxamide] | 0.321
CC(C)(C)c1cc(C(=O)NCCc2c[nH]c3ccc(Cl)cc23)n(Cc2ccccc2)n1 [Example D120, 1-benzyl-3-tert-butyl-N-(2-(5-chloro-1H-indol-3-yl)ethyl)-1H-pyrazole-5-carboxamide] | 0.868
CCNCc1cc(C(=O)NCCc2c[nH]c3ccc(Cl)cc23)no1 [Example D66, N-(2-(5-chloro-1H-indol-3-yl)ethyl)-5-((ethylamino)methyl)isoxazole-3-carboxamide] | 0.327

Structure (SMILES) | EC50 [µM]
O=C(NCCc1c[nH]c2ccc(Cl)cc12)C1CCN(c2ccc(C(F)(F)F)cc2)C1=O (stereo not drawn) [Example D132, N-(2-(5-chloro-1H-indol-3-yl)ethyl)-2-oxo-1-(4-(trifluoromethyl)phenyl)pyrrolidine-3-carboxamide] | 0.057
O=C(NCCc1c[nH]c2ccc(Cl)cc12)c1cc(C2CC2)on1 [Example D6, N-(2-(5-chloro-1H-indol-3-yl)ethyl)-5-cyclopropylisoxazole-3-carboxamide] | 0.013
COc1ccccc1N1CCC(C(=O)NCCc2c[nH]c3ccc(Cl)cc23)C1=O (stereo not drawn) [Example D163, N-(2-(5-chloro-1H-indol-3-yl)ethyl)-1-(2-methoxyphenyl)-2-oxopyrrolidine-3-carboxamide] | 1.86
O=C(NCCc1c[nH]c2ccc(Cl)cc12)c1nnc(C2CCCCC2)o1 [Example D77, N-(2-(5-chloro-1H-indol-3-yl)ethyl)-5-cyclohexyl-1,3,4-oxadiazole-2-carboxamide] | 0.595
Cc1noc(-c2ccccc2)c1C(=O)NCCc1c[nH]c2ccc(Cl)cc12 [Example D115, N-(2-(5-chloro-1H-indol-3-yl)ethyl)-3-methyl-5-phenylisoxazole-4-carboxamide] | 0.269
O=C(NCCc1c[nH]c2ccc(Cl)cc12)c1cc(C2CCCCC2)on1 [Example D13, N-(2-(5-chloro-1H-indol-3-yl)ethyl)-5-cyclohexylisoxazole-3-carboxamide] | 0.018
O=C(NCCc1c[nH]c2ccc(Cl)cc12)C1=NOC(c2ccccc2)C1 (stereo not drawn) [Example D55, N-(2-(5-chloro-1H-indol-3-yl)ethyl)-5-phenyl-4,5-dihydroisoxazole-3-carboxamide] | 0.189
O=C(NCCc1c[nH]c2ccc(Cl)cc12)C1=NOC(Cc2ccccc2)C1 (stereo not drawn) [Example D43, 5-benzyl-N-(2-(5-chloro-1H-indol-3-yl)ethyl)-4,5-dihydroisoxazole-3-carboxamide] | 0.094
O=C(NCCc1c[nH]c2ccc(Cl)cc12)c1cc(Cc2ccc(C(F)(F)F)cc2)on1 [Example D9, N-(2-(5-chloro-1H-indol-3-yl)ethyl)-5-(4-(trifluoromethyl)benzyl)isoxazole-3-carboxamide] | 0.016
O=C(NCCc1c[nH]c2ccc(Cl)cc12)c1noc(Cc2ccccc2)n1 [Example D168, 5-benzyl-N-(2-(5-chloro-1H-indol-3-yl)ethyl)-1,2,4-oxadiazole-3-carboxamide] | 0.077
O=C(NCCc1c[nH]c2ccc(Cl)cc12)c1cc(Cn2cccn2)on1 [Example D42, 5-((1H-pyrazol-1-yl)methyl)-N-(2-(5-chloro-1H-indol-3-yl)ethyl)isoxazole-3-carboxamide] | 0.092
O=C(NCCc1c[nH]c2ccc(Cl)cc12)C1CCN(c2c(F)cccc2F)C1=O (stereo not drawn) [Example D151, N-(2-(5-chloro-1H-indol-3-yl)ethyl)-1-(2,6-difluorophenyl)-2-oxopyrrolidine-3-carboxamide] | 0.561
COc1ccc2c(CCNC(=O)c3cc(Cc4cccc(F)c4)on3)c[nH]c2c1 [Example D74, 5-(3-fluorobenzyl)-N-(2-(6-methoxy-1H-indol-3-yl)ethyl)isoxazole-3-carboxamide] | 0.534
O=C(NCCc1c[nH]c2ccc(Cl)cc12)C1CCN(c2ccc(F)cc2)C1=O (stereo not drawn) [Example D78, N-(2-(5-chloro-1H-indol-3-yl)ethyl)-1-(4-fluorophenyl)-2-oxopyrrolidine-3-carboxamide] | 0.691
Cn1ccc2cc(N3CCC(C(=O)NCCc4c[nH]c5ccc(Cl)cc45)C3=O)ccc21 (stereo not drawn) [Example D167, N-(2-(5-chloro-1H-indol-3-yl)ethyl)-1-(1-methyl-1H-indol-5-yl)-2-oxopyrrolidine-3-carboxamide] | 0.506
O=C(NCCc1c[nH]c2ccc(Cl)cc12)c1csc(-c2ccccc2)n1 [Example D67, N-(2-(5-chloro-1H-indol-3-yl)ethyl)-2-phenylthiazole-4-carboxamide] | 0.333
CC(C)(C)OC(=O)Nc1cc(C(=O)NCCc2c[nH]c3ccc(Cl)cc23)no1 [Example D29, tert-butyl 3-(2-(5-chloro-1H-indol-3-yl)ethylcarbamoyl)isoxazol-5-ylcarbamate] | 0.042
Cc1ccc(N2CCC(C(=O)NCCc3c[nH]c4ccc(Cl)cc34)C2)cc1 (stereo not drawn) [Example D165, N-(2-(5-chloro-1H-indol-3-yl)ethyl)-1-p-tolylpyrrolidine-3-carboxamide] | 0.188

Reference: patent US8618138B2, “Indole amide derivatives and related compounds for use in the treatment of neurodegenerative diseases” (Katholieke Universiteit Leuven, K.U. Leuven R&D, priority 2009, dated 2013)
